Measured values as given in ChEMBL document CHEMBL1201862, “PubChem BioAssay data set” (2004).
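Five compound concentrations were applied to cells in 96-well plates for 48 hours; endpoints were derived by simple linear interpolation of the resulting dose-response curve. The concentration for 50% growth inhibition is given as GI50.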 Activity calls are given as the source filed them. No stated cut-off is given here; in the data, active = GI50 up to about 1.1 µM and inactive = higher.

What was measured:
Experiment in all cases: growth of human tumour cells (NCI), 48 h
CCRF-CEM = system: CCRF-CEM
NCI-H522 = system: NCI-H522
SN12C = system: SN12C
SW-620 = system: SW-620
SR = system: SR
OVCAR-5 = system: OVCAR-5
HOP-62 = system: HOP-62
A549 = system: A549
K562 = system: K562
T47D = system: T47D
OVCAR-8 = system: OVCAR-8
HL-60 = system: HL-60
HT-29 = system: HT-29
UACC-257 = system: UACC-257
RXF 393 = system: RXF 393
COLO 205 = system: COLO 205
SF-295 = system: SF-295
DU-145 = system: DU-145
OVCAR-3 = system: OVCAR-3
RPMI-8226 = system: RPMI-8226

Measured: GI50

Oc1ccc(O)c(CNc2ccc(C(O)C(F)(F)F)cc2)c1 (centres undefined)
inactive: CCRF-CEM 3.21 µM | NCI-H522 1.66 µM | SN12C 18.1 µM | SW-620 32.2 µM | SR 6.3 µM | OVCAR-5 20.5 µM | HOP-62 15.6 µM | A549 31.6 µM | K562 11.9 µM | T47D 18.1 µM | OVCAR-8 10.4 µM | HL-60 3.42 µM | HT-29 32.4 µM | UACC-257 18.4 µM | RXF 393 12.5 µM | COLO 205 18.5 µM | SF-295 16.4 µM | DU-145 14.5 µM | OVCAR-3 3.98 µM

OC1CCN(c2c3ccccc3nc3ccccc23)CC1
inactive: NCI-H522 2.92 µM | RPMI-8226 4.82 µM | SN12C 32.4 µM | SW-620 3.36 µM | SR 2.77 µM | OVCAR-5 51.8 µM | HOP-62 34.4 µM | A549 44.4 µM | K562 4.01 µM | T47D 1.51 µM | OVCAR-8 24.8 µM | HL-60 8.61 µM | HT-29 2.28 µM | UACC-257 20.4 µM | RXF 393 4.55 µM | COLO 205 3.13 µM | SF-295 27.9 µM | DU-145 5.22 µM | OVCAR-3 7.23 µM

O=C1OC(c2ccco2)=N/C1=C\c1cccc([N+](=O)[O-])c1
inactive: CCRF-CEM > 100 µM | NCI-H522 > 100 µM | RPMI-8226 > 100 µM | SN12C > 100 µM | SW-620 > 100 µM | SR > 100 µM | OVCAR-5 > 100 µM | HOP-62 > 100 µM | A549 > 100 µM | K562 > 100 µM | T47D > 100 µM | OVCAR-8 > 100 µM | HL-60 > 100 µM | HT-29 > 100 µM | UACC-257 > 100 µM | COLO 205 > 100 µM | SF-295 > 100 µM | DU-145 > 100 µM | OVCAR-3 > 100 µM

CCOC(=O)N1C=CC(=C2C(=C3C=CN(C(=O)OCC)C=C3)C(=C3C=CN(C(=O)OCC)C=C3)C2=C2C=CN(C(=O)OCC)C=C2)C=C1
inactive: NCI-H522 19.1 µM | SN12C 20.2 µM | SW-620 17 µM | SR 6.24 µM | OVCAR-5 36.8 µM | HOP-62 25.9 µM | A549 24.4 µM | K562 23.8 µM | T47D 36.5 µM | OVCAR-8 27.1 µM | HL-60 33 µM | HT-29 22.2 µM | UACC-257 34.1 µM | RXF 393 51.5 µM | COLO 205 23.1 µM | SF-295 21.8 µM | DU-145 35.3 µM | OVCAR-3 22.4 µM

OC1CCC(C2C3CCCCC3C3CCCCC3C2C2CCC(O)CC2)CC1 (centres undefined)
inactive: NCI-H522 2.34 µM | RPMI-8226 5.53 µM | SN12C 5.13 µM | SW-620 3.99 µM | SR 4.16 µM | OVCAR-5 7.59 µM | HOP-62 5.04 µM | A549 4.18 µM | K562 4.69 µM | T47D 5.26 µM | OVCAR-8 3.72 µM | HL-60 4.13 µM | HT-29 2.05 µM | UACC-257 13.6 µM | RXF 393 2.9 µM | COLO 205 2.22 µM | SF-295 4.28 µM | DU-145 5.37 µM | OVCAR-3 4.67 µM

c1ccc(/N=C(\N2CCOCC2)N(CCN2CCOCC2)c2ccccc2)cc1
inactive: CCRF-CEM > 100 µM | NCI-H522 > 100 µM | RPMI-8226 > 100 µM | SN12C > 100 µM | SW-620 > 100 µM | SR > 100 µM | HOP-62 > 100 µM | A549 > 100 µM | K562 > 100 µM | T47D > 100 µM | OVCAR-8 > 100 µM | HL-60 > 10 µM | HT-29 > 100 µM | UACC-257 > 100 µM | RXF 393 > 100 µM | COLO 205 > 100 µM | SF-295 > 100 µM | DU-145 > 100 µM | OVCAR-3 > 100 µM

O=C1CCCCC/C1=C\c1ccccc1
inactive: NCI-H522 > 100 µM | RPMI-8226 56.4 µM | SN12C > 100 µM | SW-620 > 100 µM | SR > 100 µM | OVCAR-5 > 100 µM | HOP-62 > 100 µM | A549 > 100 µM | K562 > 100 µM | T47D > 100 µM | HL-60 18.2 µM | HT-29 > 100 µM | UACC-257 > 100 µM | COLO 205 > 100 µM | SF-295 > 100 µM | DU-145 > 100 µM | OVCAR-3 > 100 µM

Nc1n[n+]([O-])c2cc([N+](=O)[O-])ccc2[n+]1[O-]
inactive: CCRF-CEM 1.62 µM | NCI-H522 2.07 µM | RPMI-8226 2.11 µM | SN12C 5.14 µM | SW-620 2.22 µM | SR 3.18 µM | OVCAR-5 21.2 µM | HOP-62 6.81 µM | A549 18.9 µM | K562 2.14 µM | T47D 3.95 µM | OVCAR-8 3.44 µM | HL-60 2.2 µM | HT-29 2.53 µM | UACC-257 13.3 µM | COLO 205 3.85 µM | SF-295 10.4 µM | DU-145 16.3 µM | OVCAR-3 1.93 µM
